According to US20230040909A1 (priority 2019, published 2023):
Converted amounts (≈) assume the structure as drawn. Read-outs that look alike come from different tables or passages of the source.

Columns and labels:
M. tb H37Rv [1] = assay: microbe, parasite or virus in culture; format: cell-based, Mycobacterium tuberculosis; conditions: for MIC: Mycobacterium tuberculosis, H37RV, read-out: M. tb H37Rv: MIC-MABA
Mycobacterium abscessus = assay: M. ab_ATCC MIC MHII; format: cell-based; conditions: for MIC: Mycobacteroides abscessus, read-out: M. ab_ATCC: MIC MHII: MIC
Excerpt: The procedure described in Franz 2017 was used to generate the data shown in column 5 of Table 4.

VERO Cell = assay: VERO cell cytotoxicity; format: cell-based
Excerpt: (§1) The procedures described in Falzari 2005 were used to generate the data shown in column 2 of Table 4.

hNav1.5 Late = hNav1.5 Late (Homo sapiens, UniProt Q14524); assay: In vitro assessment of ion channels: hNav1.5 Late; format: biochemical
hCav1.2 = hCav1.2 (Homo sapiens, UniProt Q13936); assay: biochemical
hKCNQ1/MinK = hKCNQ1/MinK (Homo sapiens, UniProt P51787); assay: biochemical; format: biochemical
[2] = QTc (QTcV) prolongation in dogs after oral dosing, with plasma level at 1 hr; conditions: for concentration at 1 h: dog, plasma, po; for Max. QTcv / QTcV @ 1 hr / C1 hr / corrected QT (QTc) prolongation in dogs: dogs; for Max. QTcv / QTcV @ 1 hr / C1 hr: PO; for QTcV @ 1 hr / C1 hr: 1 hr
hERG = hERG (Homo sapiens, UniProt Q12809); assay: biochemical
hNav1.5 Peak = hNav1.5 Peak (Homo sapiens, UniProt Q14524); assay: In vitro assessment of ion channels: hNav1.5 Peak; format: biochemical
M. tb H37Rv [3] = assay: microbe, parasite or virus in culture; format: cell-based; conditions: Mycobacterium tuberculosis, read-out: M. tb H37Rv: MIC-LORA
VERO cell cytotoxicity = format: cell-based; conditions: African green monkey, VERO cells
Excerpt: as §1

M. tb H37Rv [4] = format: cell-based, Mycobacterium tuberculosis
[5] = Table 3, read-out: hNav1.5 Late IC50

hCav1.2, sequence (Q13936 whole entry): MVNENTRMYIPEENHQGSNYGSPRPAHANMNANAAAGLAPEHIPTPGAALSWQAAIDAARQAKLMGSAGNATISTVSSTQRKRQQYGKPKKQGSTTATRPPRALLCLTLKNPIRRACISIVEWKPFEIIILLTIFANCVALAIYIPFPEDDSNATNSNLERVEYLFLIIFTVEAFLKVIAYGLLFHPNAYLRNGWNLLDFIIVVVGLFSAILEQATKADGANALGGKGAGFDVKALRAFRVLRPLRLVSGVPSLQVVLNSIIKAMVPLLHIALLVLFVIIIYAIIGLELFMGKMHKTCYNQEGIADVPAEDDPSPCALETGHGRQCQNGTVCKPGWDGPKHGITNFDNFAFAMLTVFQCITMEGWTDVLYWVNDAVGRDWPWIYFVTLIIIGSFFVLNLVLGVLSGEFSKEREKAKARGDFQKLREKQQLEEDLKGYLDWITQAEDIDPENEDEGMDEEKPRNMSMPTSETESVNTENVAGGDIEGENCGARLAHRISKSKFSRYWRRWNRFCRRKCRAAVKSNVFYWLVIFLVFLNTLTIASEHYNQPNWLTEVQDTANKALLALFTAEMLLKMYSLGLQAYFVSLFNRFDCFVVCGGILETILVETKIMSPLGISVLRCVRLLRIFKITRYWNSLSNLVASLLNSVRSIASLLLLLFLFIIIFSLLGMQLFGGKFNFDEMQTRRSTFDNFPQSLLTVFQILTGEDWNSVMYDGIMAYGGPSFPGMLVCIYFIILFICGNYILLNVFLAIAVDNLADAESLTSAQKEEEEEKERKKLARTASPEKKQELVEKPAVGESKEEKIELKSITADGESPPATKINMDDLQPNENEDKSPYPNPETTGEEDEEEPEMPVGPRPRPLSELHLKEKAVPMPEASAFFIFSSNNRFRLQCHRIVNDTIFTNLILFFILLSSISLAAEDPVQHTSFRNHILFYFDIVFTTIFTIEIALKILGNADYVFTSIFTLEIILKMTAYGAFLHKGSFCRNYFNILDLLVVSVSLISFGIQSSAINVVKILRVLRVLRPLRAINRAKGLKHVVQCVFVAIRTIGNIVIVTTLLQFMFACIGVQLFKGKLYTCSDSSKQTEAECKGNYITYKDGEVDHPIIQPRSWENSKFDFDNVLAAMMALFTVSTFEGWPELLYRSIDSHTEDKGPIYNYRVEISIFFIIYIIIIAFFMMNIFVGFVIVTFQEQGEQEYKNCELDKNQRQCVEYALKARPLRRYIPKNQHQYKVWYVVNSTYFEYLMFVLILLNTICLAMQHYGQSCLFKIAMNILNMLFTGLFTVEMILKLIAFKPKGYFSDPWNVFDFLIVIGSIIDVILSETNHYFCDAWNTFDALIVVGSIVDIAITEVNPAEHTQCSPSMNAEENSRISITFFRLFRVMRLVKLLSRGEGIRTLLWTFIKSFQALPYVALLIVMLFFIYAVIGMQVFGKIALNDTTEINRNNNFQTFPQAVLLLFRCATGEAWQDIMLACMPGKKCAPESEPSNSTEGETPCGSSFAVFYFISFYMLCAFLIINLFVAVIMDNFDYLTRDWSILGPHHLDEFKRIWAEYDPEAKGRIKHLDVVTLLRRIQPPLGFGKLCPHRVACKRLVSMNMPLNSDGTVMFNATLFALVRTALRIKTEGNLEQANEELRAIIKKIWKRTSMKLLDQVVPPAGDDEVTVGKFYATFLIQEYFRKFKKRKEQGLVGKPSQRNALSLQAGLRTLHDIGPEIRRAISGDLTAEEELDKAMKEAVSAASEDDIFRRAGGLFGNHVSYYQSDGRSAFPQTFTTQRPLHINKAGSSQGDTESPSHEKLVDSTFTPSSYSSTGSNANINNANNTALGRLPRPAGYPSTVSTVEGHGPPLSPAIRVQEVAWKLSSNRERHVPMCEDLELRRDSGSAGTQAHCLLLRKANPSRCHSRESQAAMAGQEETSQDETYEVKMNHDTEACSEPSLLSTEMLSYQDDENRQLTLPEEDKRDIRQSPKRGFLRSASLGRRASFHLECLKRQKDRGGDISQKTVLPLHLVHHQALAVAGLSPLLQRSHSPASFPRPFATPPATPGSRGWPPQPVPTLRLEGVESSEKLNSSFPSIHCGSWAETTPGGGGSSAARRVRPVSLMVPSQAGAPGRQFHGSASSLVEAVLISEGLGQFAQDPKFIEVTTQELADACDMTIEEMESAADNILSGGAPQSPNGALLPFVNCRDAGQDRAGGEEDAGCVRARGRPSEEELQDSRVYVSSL
hCav1.2, sequence (Q08289 whole entry partner): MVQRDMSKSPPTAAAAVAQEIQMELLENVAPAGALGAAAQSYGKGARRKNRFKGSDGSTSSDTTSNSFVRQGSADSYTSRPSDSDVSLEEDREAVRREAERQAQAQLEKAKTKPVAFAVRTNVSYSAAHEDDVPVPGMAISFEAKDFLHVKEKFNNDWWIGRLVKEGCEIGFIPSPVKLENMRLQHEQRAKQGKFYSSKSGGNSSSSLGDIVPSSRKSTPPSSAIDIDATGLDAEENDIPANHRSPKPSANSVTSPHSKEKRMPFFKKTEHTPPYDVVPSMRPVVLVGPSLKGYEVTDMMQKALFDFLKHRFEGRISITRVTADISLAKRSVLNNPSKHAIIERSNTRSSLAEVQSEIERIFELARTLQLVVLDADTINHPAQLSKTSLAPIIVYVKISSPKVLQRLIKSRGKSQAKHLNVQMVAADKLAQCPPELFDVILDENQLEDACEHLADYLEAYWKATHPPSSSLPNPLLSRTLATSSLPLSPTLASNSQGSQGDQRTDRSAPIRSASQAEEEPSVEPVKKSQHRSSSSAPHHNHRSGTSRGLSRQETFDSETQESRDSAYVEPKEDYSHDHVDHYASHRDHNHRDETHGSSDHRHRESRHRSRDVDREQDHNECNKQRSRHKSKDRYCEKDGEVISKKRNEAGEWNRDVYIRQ
hCav1.2, sequence (P54289 25-946 partner limits assumed): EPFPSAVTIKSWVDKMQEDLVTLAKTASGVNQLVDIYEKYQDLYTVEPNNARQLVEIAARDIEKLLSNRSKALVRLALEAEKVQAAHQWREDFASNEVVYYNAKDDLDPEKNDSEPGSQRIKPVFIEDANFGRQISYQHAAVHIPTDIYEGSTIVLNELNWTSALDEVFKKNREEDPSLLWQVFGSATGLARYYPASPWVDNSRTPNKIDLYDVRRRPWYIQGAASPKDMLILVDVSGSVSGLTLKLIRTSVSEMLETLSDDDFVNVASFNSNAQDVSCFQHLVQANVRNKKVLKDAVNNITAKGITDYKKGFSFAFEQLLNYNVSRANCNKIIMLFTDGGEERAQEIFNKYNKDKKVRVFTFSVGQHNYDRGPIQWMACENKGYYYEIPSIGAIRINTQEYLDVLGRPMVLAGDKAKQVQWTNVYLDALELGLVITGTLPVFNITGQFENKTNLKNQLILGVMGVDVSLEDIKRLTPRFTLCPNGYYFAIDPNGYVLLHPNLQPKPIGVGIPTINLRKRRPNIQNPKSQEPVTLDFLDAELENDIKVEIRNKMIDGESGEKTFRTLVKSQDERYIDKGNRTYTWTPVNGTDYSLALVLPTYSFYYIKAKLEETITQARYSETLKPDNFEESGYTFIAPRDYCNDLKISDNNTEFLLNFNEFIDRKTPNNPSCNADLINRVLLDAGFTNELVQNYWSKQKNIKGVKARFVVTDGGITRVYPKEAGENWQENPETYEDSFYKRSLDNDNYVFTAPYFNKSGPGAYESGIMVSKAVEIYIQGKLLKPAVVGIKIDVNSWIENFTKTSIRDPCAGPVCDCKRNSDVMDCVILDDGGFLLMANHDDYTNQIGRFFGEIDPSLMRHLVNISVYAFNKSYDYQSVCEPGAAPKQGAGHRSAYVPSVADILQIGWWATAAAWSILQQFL
hCav1.2, sequence (P54289 947-1103 partner limits assumed): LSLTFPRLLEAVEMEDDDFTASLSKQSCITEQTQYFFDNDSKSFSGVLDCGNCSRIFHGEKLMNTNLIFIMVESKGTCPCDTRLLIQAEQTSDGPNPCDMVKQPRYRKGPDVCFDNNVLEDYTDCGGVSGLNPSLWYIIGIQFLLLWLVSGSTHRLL
hERG, sequence (Q12809 whole entry): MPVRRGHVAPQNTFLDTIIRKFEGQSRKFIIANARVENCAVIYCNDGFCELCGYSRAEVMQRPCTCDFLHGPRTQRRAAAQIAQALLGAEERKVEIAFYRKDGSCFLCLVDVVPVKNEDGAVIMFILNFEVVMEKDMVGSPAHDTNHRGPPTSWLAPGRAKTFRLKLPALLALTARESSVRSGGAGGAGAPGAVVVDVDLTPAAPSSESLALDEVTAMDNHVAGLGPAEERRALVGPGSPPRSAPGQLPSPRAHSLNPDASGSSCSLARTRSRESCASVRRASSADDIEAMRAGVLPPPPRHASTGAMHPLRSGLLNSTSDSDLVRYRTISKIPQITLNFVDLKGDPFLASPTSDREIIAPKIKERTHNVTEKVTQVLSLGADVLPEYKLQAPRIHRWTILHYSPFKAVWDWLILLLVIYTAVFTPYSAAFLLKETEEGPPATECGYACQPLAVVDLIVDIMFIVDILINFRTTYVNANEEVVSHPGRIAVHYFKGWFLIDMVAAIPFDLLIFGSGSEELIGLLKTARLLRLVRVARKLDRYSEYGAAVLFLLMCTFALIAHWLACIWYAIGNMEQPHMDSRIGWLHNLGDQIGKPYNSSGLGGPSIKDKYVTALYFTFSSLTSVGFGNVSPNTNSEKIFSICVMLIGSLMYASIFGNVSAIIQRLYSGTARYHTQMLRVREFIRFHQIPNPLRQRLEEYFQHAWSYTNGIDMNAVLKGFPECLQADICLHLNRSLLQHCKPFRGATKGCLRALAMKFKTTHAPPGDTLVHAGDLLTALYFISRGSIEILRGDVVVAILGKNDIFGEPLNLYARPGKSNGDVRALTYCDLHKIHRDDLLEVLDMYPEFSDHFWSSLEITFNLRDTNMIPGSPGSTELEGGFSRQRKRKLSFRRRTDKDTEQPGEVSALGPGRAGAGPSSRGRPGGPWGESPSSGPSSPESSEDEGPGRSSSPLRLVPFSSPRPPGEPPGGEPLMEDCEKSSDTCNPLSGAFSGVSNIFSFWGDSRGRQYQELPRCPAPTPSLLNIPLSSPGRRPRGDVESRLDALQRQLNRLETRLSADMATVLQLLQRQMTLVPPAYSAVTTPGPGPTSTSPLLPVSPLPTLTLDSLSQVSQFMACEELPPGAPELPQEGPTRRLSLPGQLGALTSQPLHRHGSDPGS

Row | SMILES | IC50 (hCav1.2; Table 2) [µM] | Max. QTcv ([2]; 50 mg/kg) [ms] | QTcV @ 1 hr ([2]; 50 mg/kg) [ms] | Max. QTcv ([2]; 150 mg/kg) [ms] | QTcV @ 1 hr ([2]; 150 mg/kg) [ms] | IC50 (hERG; hERG IC50, Table 2) [µM] | MIC (M. tb H37Rv [1]) [µg/mL] | MIC (Mycobacterium abscessus) [µg/mL] | MIC (M. tb H37Rv [3]) [µg/mL] | IC50 (hCav1.2; Table 3) [µM] | IC50 (VERO cell cytotoxicity) [µg/mL] | IC50 (hERG; hERG IC50, Table 3) [µM] | further results
1 | Cc1cc(C)c2cc(C(=O)NC3CC[Si](C)(C)C3)[nH]c2c1 (single isomer, unassigned) [MPL-296A] |  |  |  |  |  |  |  |  |  |  |  |  | M. tb H37Rv: MIC-MABA (M. tb H37Rv [1]): 0.0007- μg/mL; M. ab_ATCC: MIC MHII: MIC (Mycobacterium abscessus): <0.063 µg/mL; VERO Cell: Cytotoxicity-IC50 (VERO Cell): >64 µg/mL
2 | Cc1cc(C)c2cc(C(=O)NC3CC[Si](C)(C)C3)[nH]c2c1 (single isomer, unassigned) [MPL-296B] |  |  |  |  |  |  |  |  |  |  |  |  | M. tb H37Rv: MIC-MABA (M. tb H37Rv [1]): 0.052- μg/mL; M. ab_ATCC: MIC MHII: MIC (Mycobacterium abscessus): 0.5 µg/mL; VERO Cell: Cytotoxicity-IC50 (VERO Cell): >64 µg/mL
3 | C[C@@H]1C(NC(=O)c2cc3c(F)cc(F)cc3[nH]2)CC2C[C@@H]1C2(C)C (some centres unmarked) [JS-2-02] | > 10 | 6.8 | 1.2 | 37 | 2.8 | > 10 |  |  |  |  |  |  | IC50 (hNav1.5 Late; Table 2, read-out: hNav1.05 Late IC50): > 10 µM; IC50 (hKCNQ1/MinK; Table 2): 6.2 µM; concentration at 1 h ([2]; 50 mg/kg): 1200 ng/mL; C1 hr ([2]; 150 mg/kg): 1100 ng/mL; IC50 (hNav1.5 Peak; Table 2): 5.17 µM
4 | C[Si]1(C)CCC(NC(=O)c2cc3c(Cl)cc(Cl)cc3[nH]2)CC1 [MPL-203, 4,6-dichloro-N-(1,1-dimethylsilinan-4-yl)-1H-Indole-2-carboxamide] |  |  |  |  |  |  | 0.0033 (≈ 0.00929 µM) | > 64 | > 32 | > 10 | > 32 | > 10 | IC50 (hNav1.5 Late; [5]): > 10 µM; hKCNQ1 channel inhibition (hKCNQ1/MinK): do not inhibit the hKCNQ1 channel; IC50 (hKCNQ1/MinK; Table 3): 2.71 µM; MIC (M. tb H37Rv [4]): 0.003 µg/mL (≈ 0.00844 µM); IC50 (hNav1.5 Peak; Table 3): > 10 µM
5 | C[Si]1(C)CCC(NC(=O)c2cc3c(F)cc(F)cc3[nH]2)CC1 [MPL-204, N-(1,1-dimethylsilinan-4-yl)-4,6-difluoro-1H-indole-2-carboxamide] |  |  |  |  |  |  | 0.0035 (≈ 0.0109 µM) | > 64 | > 32 | > 10 | > 32 | > 10 | IC50 (hNav1.5 Late; [5]): > 10 µM; hKCNQ1 channel inhibition (hKCNQ1/MinK): do not inhibit the hKCNQ1 channel; IC50 (hKCNQ1/MinK; Table 3): 7.56 µM; MIC (M. tb H37Rv [4]): 0.003 µg/mL (≈ 0.0093 µM); IC50 (hNav1.5 Peak; Table 3): > 10 µM
6 | C[Si]1(C)CCC(NC(=O)c2cc3c(F)cc(F)cc3[nH]2)C1 (centres unmarked) [MPL-400, N-(1,1-dimethylsilolan-3-yl)-4,6-difluoro-1H-indole-2-carboxamide] |  |  |  |  |  |  | 0.0113 (≈ 0.0366 µM) | > 64 | > 20 |  | > 20 |  | 
7 | Cc1cc(F)c2cc(C(=O)NC3CC[Si](C)(C)CC3)[nH]c2c1 [MPL-470, N-(1,1-dimethylsilinan-4-yl)-4-fluoro-6-methyl-1H-indole-2-carboxamide] |  |  |  |  |  |  | 0.007 (≈ 0.022 µM) | > 64 | > 20 |  | > 20 |  | 
8 | CC1(C)CCC(NC(=O)c2cc3c(Cl)cc(Cl)cc3[nH]2)CC1 [NITD-304] | 2.01 | 49 | -0.6 | 120 | 0.3 | > 10 |  |  |  | 2.01 |  | > 10 | IC50 (hNav1.5 Late; read-out: hNav1.05 Late IC50): 6.4 µM; IC50 (hKCNQ1/MinK): 0.71 µM; concentration at 1 h ([2]; 150 mg/kg): 300 ng/mL; corrected QT (QTc) prolongation in dogs [2]: dramatic corrected QT (QTc) prolongation; C1 hr ([2]; 50 mg/kg): 250 ng/mL; IC50 (hERG; hERG IC50, stated in text): > 50 µM; IC50 (hNav1.5 Peak): > 10 µM
9 | CC1(C)CCC(NC(=O)c2cc3c(F)cc(F)cc3[nH]2)CC1 [NITD-349] | 9.53 | 170 | 11 | 170 | 13.6 | > 10 |  |  |  | 9.5 |  | > 10 | IC50 (hNav1.5 Late; read-out: hNav1.05 Late IC50): > 10 µM; IC50 (hNav1.5 Late; read-out: hNav1.5 Late IC50): > 10 µM; IC50 (hKCNQ1/MinK): 0.058 µM; corrected QT (QTc) prolongation in dogs [2]: dramatic corrected QT (QTc) prolongation; C1 hr ([2]; 50 mg/kg): 790 ng/mL; IC50 (hERG; hERG IC50, stated in text): > 50 µM; IC50 (hNav1.5 Peak): > 10 µM
